Consider 42 compounds from patent publication US10196363B2, “Dihydropyrimidin-2-one compounds and medical use thereof” (JAPAN TOBACCO INC., priority 2014, dated 2019).

Assay [1] has as its target T1, mouse RORγ (Mus musculus, UniProt P51450).
T1 construct: mouse RORγ, from Ile251 to Lys516; expressed in transfected cells; host or cells: CHO cells (Chinese hamster ovary), transient co-transfection with pG5-Luc
T1 sequence (P51450 251-516): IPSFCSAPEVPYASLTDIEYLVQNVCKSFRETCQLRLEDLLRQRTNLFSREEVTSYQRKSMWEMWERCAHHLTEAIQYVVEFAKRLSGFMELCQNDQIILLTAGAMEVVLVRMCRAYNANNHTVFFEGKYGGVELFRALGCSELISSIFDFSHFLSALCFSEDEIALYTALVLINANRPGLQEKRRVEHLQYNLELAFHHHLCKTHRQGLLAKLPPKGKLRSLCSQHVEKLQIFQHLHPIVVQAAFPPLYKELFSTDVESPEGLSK
The experiment in a line: In vitro assay of inhibitory effect against RORγ transcriptional activity (GAL4-mRORγ LBD luciferase reporter gene assay in CHO cells). The assay is classed as cell-based. The following applies: GAL4-mRORγ LBD luciferase reporter, CHO cells; read-out: LUC EC50 mRORγ. The gist of the method: (§1)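 Transcriptional activity of human or mouse RORγ LBD, tethered to the GAL4 DNA-binding domain, is monitored by a GAL4-dependent firefly luciferase reporter in transiently transfected CHO cells. Test articles are incubated for 2 days; values are %-of-control or fitted EC50.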
In general terms: In a reporter assay the amount or activity of a reporter protein is the signal.

Assay [2] deals with T2, human RORγ (Homo sapiens, UniProt P51449).
T2 construct: human RORγ, from Ser253 to Lys518; expressed in transfected cells; host or cells: CHO cells (Chinese hamster ovary), transient co-transfection with pG5-Luc
T2 sequence (P51449 253-518): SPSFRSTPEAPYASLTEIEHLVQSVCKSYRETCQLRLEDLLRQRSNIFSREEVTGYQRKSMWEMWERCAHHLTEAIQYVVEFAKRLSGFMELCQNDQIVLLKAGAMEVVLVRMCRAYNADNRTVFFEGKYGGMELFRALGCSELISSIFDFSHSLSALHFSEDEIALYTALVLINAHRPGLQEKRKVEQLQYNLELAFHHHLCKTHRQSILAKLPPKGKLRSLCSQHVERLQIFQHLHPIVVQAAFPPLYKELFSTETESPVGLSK
The assay is described as follows: In vitro assay of inhibitory effect against RORγ transcriptional activity (GAL4-hRORγ LBD luciferase reporter gene assay in CHO cells). Format: cell-based. The following applies: for EC50: GAL4-hRORγ LBD luciferase reporter, CHO cells, read-out: LUC EC50 hRORγ. The gist of the method:
as §1

The term EC50 denotes the midpoint of the concentration-response curve.

Molecules are shown by their SMILES.

For the compound `CC(C)C1=CN(c2cc(C(=O)O)nn2C)C(=O)N[C@@]1(C)c1ccc(CCC(C)(C)C)c(Cl)c1` [Example 297], the results for the EC50 in assay [1] and in assay [2] were 61 nM and 44 nM, respectively.

For the compound `CC(C)C1=CN(CCC(=O)O)C(=O)N[C@@]1(C)c1ccc(C2CC(C)(C)C2)c(Cl)c1` [Example 298], the figures for the EC50 in assay [1] and in assay [2] were 18 nM and 22 nM, respectively.

Turning to `CC(C)C1=CN(CCC(=O)O)C(=O)N[C@@]1(C)c1ccc(CCC2(F)CCCC2)c(Cl)c1` [Example 301], the results for the EC50 in assay [1] and in assay [2] were 10 nM and 27 nM, respectively.

With `CC(C)C1=CN(CCC(=O)O)C(=O)N[C@@]1(C)c1ccc([C@H]2C[C@@H](C(C)(C)C)C2)c(Cl)c1` [Example 302], the values for the EC50 in assay [1] and in assay [2] were 30 nM and 28 nM, respectively.

For the compound `CC(C)(C)CCc1ccc([C@]2(C)NC(=O)N(CCC(=O)O)C=C2CCS(C)(=O)=O)cc1Cl` [Example 303], the EC50 in assay [1] is 1310 nM; in assay [2], 1400 nM.

Take `COC(C)CC1=CN(CCC(=O)O)C(=O)N[C@@]1(C)c1ccc([C@H]2C[C@@H](C(C)(C)C)C2)c(Cl)c1` (stereo partly shown) [Example 304]: the EC50 in assay [1] was 19 nM; in assay [2], 21 nM.

In the case of `CC(C)C1=CN(CCC(=O)O)C(=O)N[C@@]1(C)c1ccc([C@H]2C[C@@H](CC(C)(C)C)C2)c(Cl)c1` [Example 309], the EC50 was 71 nM in assay [1] and > 3200 nM in assay [2]. Also, the “hRORγ luciferase activity, %-of-control” value in assay [2] (value in parentheses beside the EC50 bound, vehicle-control 0.2% DMSO alone = 100%) is reported as “(63%)”.

As for `CC(C)(C)CCc1ccc([C@]2(C)NC(=O)N(c3ccc(C(=O)O)cc3)C=C2CCCOC(C)(C)C)cc1Cl` [Example 313], the EC50 in assay [1] is 366 nM; in assay [2] it was 260 nM.

With `CC(C)C1=CN(C23CCC(C(=O)O)(C2)C3)C(=O)N[C@@]1(C)c1ccc(CCC(C)(C)C)c(C(F)(F)F)c1` [Example 314], the results for the EC50 in assay [1] and in assay [2] were 32 nM and 38 nM, respectively.

Take `COCCC1=CN(c2ccc(C(=O)O)cc2)C(=O)N[C@@]1(C)c1ccc([C@H]2C[C@@H](C(C)(C)C)C2)c(Cl)c1` [Example 315]: the EC50 stood at 19 nM in assay [1] and 13 nM in assay [2].

For the compound `CC(C)(C)CCc1ccc([C@]2(C)NC(=O)N(C34CC(C(=O)O)(C3)C4)C=C2C2CC(F)(F)C2)cc1Cl` [Example 316], the values for the EC50 in assay [1] and in assay [2] were 19 nM and 18 nM, respectively.

On to `CC(C)C1=CN(CCC(=O)O)C(=O)N[C@@]1(C)c1ccc(C#CC(C)(C)C)c(Cl)c1` [Example 317], for which the EC50 in assay [1] amounted to 24 nM; in assay [2], 40 nM.

For the compound `COCCC1=CN(c2ccc(C(=O)O)cc2)C(=O)N[C@@]1(C)c1ccc([C@H]2C[C@@H](C(C)C)C2)c(Cl)c1` [Example 318], the figures for the EC50 in assay [1] and in assay [2] were 14 nM and 17 nM, respectively.

As to `CC(C)(C)CCc1ccc([C@]2(C)NC(=O)N(CCC(=O)O)C=C2C2CC(F)(F)C2)cc1Cl` [Example 319], the EC50 in assay [1] was determined as 14 nM; in assay [2], 13 nM.

As for `CC(C)(C)CCc1ccc([C@]2(C)NC(=O)N(c3ccc(C(=O)O)cn3)C=C2C2CC(F)(F)C2)cc1Cl` [Example 320], the concentration giving a half-maximal response (EC50) in assay [1] was determined as 27 nM; in assay [2], 23 nM.

`CC1(C)CC=C(c2ccc([C@]3(C)NC(=O)N(CCC(=O)O)C=C3C3CC3)cc2Cl)CC1` [Example 321]: the EC50 in assay [1] is 48 nM; in assay [2], 60 nM.

With `CC(C)C1=CN(C23CC(C(=O)O)(C2)C3)C(=O)N[C@@]1(C)c1ccc(CCC(C)(C)C)c(C(F)(F)F)c1` [Example 322], the EC50 in assay [1] was 19 nM; in assay [2] it was 21 nM.

Take `COCCC1=CN(c2ccc(C(=O)O)cc2)C(=O)N[C@@]1(C)c1ccc(CCC(C)(C)C)c(C(F)(F)F)c1` [Example 323]: the EC50 in assay [1] worked out at 23 nM; in assay [2], 51 nM.

Regarding `COCCC1=CN(C23CCC(C(=O)O)(C2)C3)C(=O)N[C@@]1(C)c1ccc(CCC(C)(C)C)c(C(F)(F)F)c1` [Example 324], the EC50 was determined as 36 nM in assay [1] and 47 nM in assay [2].

Take `COCCC1=CN([C@H]2CC[C@H](C(=O)O)CC2)C(=O)N[C@@]1(C)c1ccc(CCC(C)(C)C)c(C(F)(F)F)c1` [Example 325]: the half-maximal effective concentration (EC50) in assay [1] amounted to 60 nM; in assay [2] it was 174 nM.

Turning to `CC(C)C1=CN(CCC(=O)O)C(=O)N[C@@]1(C)c1ccc(C2=CCC(F)(F)CC2)c(Cl)c1` [Example 327], the values for the 50% effective concentration (EC50) in assay [1] and in assay [2] were 40 nM and 58 nM, respectively.

Turning to `CC(C)C1=CN(CCC(=O)O)C(=O)N[C@@]1(C)c1ccc(C2CCC(F)(F)CC2)c(Cl)c1` [Example 328], the EC50 was 19 nM in assay [1] and 35 nM in assay [2].

`CC(C)[C@H]1C[C@@H](c2ccc([C@]3(C)NC(=O)N([C@H]4C[C@H](C(=O)O)C4)C=C3C3CC(F)(F)C3)cc2Cl)C1` [Example 329]: the values for the EC50 in assay [1] and in assay [2] were 50 nM and 74 nM, respectively.

In the case of `COCCC1=CN(C23CCC(C(=O)O)(C2)C3)C(=O)N[C@@]1(C)c1ccc([C@H]2C[C@@H](C(C)C)C2)c(Cl)c1` [Example 330], the EC50 in assay [1] is 14 nM; in assay [2], 19 nM.

Consider `COCCC1=CN(CCC(=O)O)C(=O)N[C@@]1(C)c1ccc(C2=CCC(C)(C)CC2)c(Cl)c1` [Example 331], for which the values for the EC50 in assay [1] and in assay [2] were 8 nM and 14 nM, respectively.

For the compound `COCCC1=CN(c2ccc(C(=O)O)cc2)C(=O)N[C@@]1(C)c1ccc(C2=CCC(C)(C)CC2)c(Cl)c1` [Example 332], the results for the EC50 in assay [1] and in assay [2] were 13 nM and 12 nM, respectively.

In the case of `COCCC1=CN(c2ccc(C(=O)O)c(OC)c2)C(=O)N[C@@]1(C)c1ccc(C2=CCC(C)(C)CC2)c(Cl)c1` [Example 333], the EC50 in assay [1] was found to be 13 nM; in assay [2] it was 23 nM.

As to `COCCC1=CN(c2ccc(C(=O)O)cn2)C(=O)N[C@@]1(C)c1ccc(C2=CCC(C)(C)CC2)c(Cl)c1` [Example 334], the EC50 is 14 nM in assay [1] and 22 nM in assay [2].

For the compound `COCCC1=CN(CCC(=O)O)C(=O)N[C@@]1(C)c1ccc(CC2CCCCC2)c(Cl)c1` [Example 335], the half-maximal effective concentration (EC50) in assay [1] came out at 11 nM; in assay [2], 26 nM.

On to `COCCC1=CN(c2ccc(C(=O)O)cc2)C(=O)N[C@@]1(C)c1ccc(CC2CCCCC2)c(Cl)c1` [Example 336], for which the EC50 was 7 nM in assay [1] and 10 nM in assay [2].

Regarding `COCCC1=CN(c2ccc(C(=O)O)c(OC)c2)C(=O)N[C@@]1(C)c1ccc(CC2CCCCC2)c(Cl)c1` [Example 337], the values for the EC50 in assay [1] and in assay [2] were 14 nM and 22 nM, respectively.

On to `COCCC1=CN(c2ccc(C(=O)O)cn2)C(=O)N[C@@]1(C)c1ccc(CC2CCCCC2)c(Cl)c1` [Example 338], for which the EC50 in assay [1] is 12 nM; in assay [2], 13 nM.

For the compound `CC(C)(C)C1=CN(CCC(=O)O)C(=O)N[C@@]1(C)c1ccc(CC2CCCCC2)c(Cl)c1` [Example 339], the EC50 in assay [1] turned out to be 15 nM; in assay [2], 17 nM.

As to `COCCC1=CN(C23CC(C(=O)O)(C2)C3)C(=O)N[C@@]1(C)c1ccc(CCC(C)(C)C)c(C(F)(F)F)c1` [Example 340], the values for the EC50 in assay [1] and in assay [2] were 43 nM and 123 nM, respectively.

`CC(C)(C)CCc1ccc([C@]2(C)NC(=O)N(C34CC(C(=O)O)(C3)C4)C=C2C2CC(F)(F)C2)cc1C(F)(F)F` [Example 341]: the concentration giving a half-maximal response (EC50) in assay [1] was 32 nM; in assay [2], 67 nM.

With `CC(C)(C)CCc1ccc([C@]2(C)NC(=O)N(c3ccc(C(=O)O)cc3)C=C2C2CC(F)(F)C2)cc1C(F)(F)F` [Example 342], the results for the concentration for a half-maximal effect (EC50) in assay [1] and in assay [2] were 28 nM and 43 nM, respectively.

Turning to `CC(C)(C)CCc1ccc([C@]2(C)NC(=O)N(CCC(=O)O)C=C2C2CC(F)(F)C2)cc1C(F)(F)F` [Example 343], the EC50 in assay [1] is 19 nM; in assay [2], 38 nM.

Turning to `COc1cc(N2C=C(C(C)C)[C@](C)(c3ccc(CCC(C)(C)C)c(C(F)(F)F)c3)NC2=O)ccc1C(=O)O` [Example 345], the concentration giving a half-maximal response (EC50) was 23 nM in assay [1] and 42 nM in assay [2].

As for `COc1cc(N2C=C(C3CC(F)(F)C3)[C@](C)(c3ccc(CCC(C)(C)C)c(Cl)c3)NC2=O)ccc1C(=O)O` [Example 346], the EC50 amounted to 18 nM in assay [1] and 26 nM in assay [2].

On to `C[C@@]1(c2ccc(CC3CCCCC3)c(Cl)c2)NC(=O)N(CCC(=O)O)C=C1C1CC1` [Example 347], for which the EC50 was determined as 35 nM in assay [1] and 109 nM in assay [2].

For `CC(C)CCOc1ccc([C@]2(C)NC(=O)N(c3ccc(C(=O)O)cc3)C=C2C2CC(F)(F)C2)cc1Cl` [Example 348], the values for the 50% effective concentration (EC50) in assay [1] and in assay [2] were 39 nM and 46 nM, respectively.

In the case of `CC(C)CCOc1ccc([C@]2(C)NC(=O)N(C34CC(C(=O)O)(C3)C4)C=C2C2CC(F)(F)C2)cc1Cl` [Example 349], the results for the EC50 in assay [1] and in assay [2] were 45 nM and 63 nM, respectively.
